Laboratory results: US9669078B2, “PD-L1 based immunotherapy” (Herlev Hospital, priority 2011, dated 2017)
Entries after “also recorded” stand apart in the source; their conditions may differ. Read-outs that look alike come from different tables or passages of the source.

Key:
[1] = system: T2-cells; experiment: 51Cr-release cytotoxicity assay, T2-cells; type: cell-based
Method: Conventional ^51Cr-release assays for CTL-mediated cytotoxicity were carried out as described elsewhere (Andersen et al., 1999). Target cells were T2 with and without PDL101 (FIG. 3a) and the HLA-A2+ breast cancer cell line the breast cancer cell line MDA-MB-231 (FIG. 3b) (available at the American Type Culture Collection (ATCC)).
(§1) Conventional ^51Cr-release assays for CTL-mediated cytotoxicity were carried out as described in Andersen et al., J Immunol 1999. Target cells were T2-cells, HLA-A2^+ EBV transformed B-cell line (KIG-BCL), autologous matured DC (mDC), HLA-A2^+ melanoma cell lines (MM1312.07 and MM.909.06) with or without IFN-γ (100 U/ml) addition for 2 days. T2-cells and KIG-BCL were pulsed with PD-L1 recombinant protein (Sin θ Biological Inc.) for 3 hr. at 37° C. prior addition of chromium. Lysis of T2-cells was blocked using anti HLA-A2 FITC conjugated antibody (2 ug/100 ul, BD Biosciences).

[2] = system: HLA-A2+ EBV transformed B-cell line (KIG-BCL); type: cell-based; details: 51Cr-release
Method: as §1

[3] = system: PD-L1 surface expression on mDC; experiment: Flow cytometry of PD-L1 surface expression on mDC; type: cell-based, human; details: 24 hr after transfection; 0.05, 0.10 and 0.25 nmol
Method: (§2) Stealth siRNA duplex for targeted silencing of PD-L1 and recommended Stealth siRNA negative control duplex for medium GC content were obtained from Invitrogen (Invitrogen, Paisley, UK). The Stealth PD-L1 siRNA duplex consisted of the sense sequence 5′-[…]3′ (SEQ ID NO: 21) and the anti-sense sequence 5′-[…]-3′ (SEQ ID NO:22). For PD-L1 silencing experiments, mDC were transfected with PD-L1 siRNA using electroporation parameters.
Flow cytometry analysis was performed on a FACSCANTO II (BD Biosciences, San Jose Calif., USA) to determine PD-L1 surface expression on mDC before and after siRNA targeted silencing, T2-cells, KIG-BCL and HLA-A2^+ melanoma cell lines (MM1312.07 and MM.909.06) with or without IFN-γ treatment. Cells were washed in PBS/1% BSA and subsequently stained either with FITC- or PE-Cy5-conjugated anti-PD-L1 monoclonal antibody for 30 min on ice in PBS/1% BSA. Nonreactive isotype-matched antibody (BD Biosciences) was used as control. Fluorescence analyses were performed using FACSDiva software (BD Biosciences) and FlowJo software (Tree Star, Ashland Oreg., USA).

[4] = system: autologous matured DC (mDC); experiment: 51Cr-release cytotoxicity assay, autologous matured DC; type: cell-based, human; details: mDC transfected by electroporation
Method: DC were generated from PBMC by adherence on culture dishes at 37° C. for 1-2 hr. in RPMI-1640. Adherent monocytes were cultured in RPMI-1640 supplemented with 10% fetal calf serum in the presence of IL-4 (250 U/ml) and GM-CSF (1000 U/ml) for 6 days. DC were matured by addition of […] (1000 U/ml), IL-6 (1000 U/ml) TNF-α (1000 U/ml) and PGE2 (1 ug/ml).
as §1, §2

[5] = system: PD-L101-specific, CD8 T-cells among PBMC; experiment: HLA-A2/PD-L101 tetramer staining by flow cytometry; type: cell-based, human; details: for PD-L1-tetramer positive cells: after three in vitro re-stimulations
Method: Two PD-L101-specific T cell culture were established. PBMC from a breast cancer patient (CM.21) and from a melanoma (MM.05) patient were stimulated with irradiated PD-L101-loaded autologous DC. The following day IL-7 and IL-12 (PeproTech, London, UK) were added. […] The day after peptide stimulation IL-2 (PeproTech, London, UK) was added.
For multimer/tetramer staining, tetramers coupled with PE and APC were prepared using MHC-peptide exchange technology. […] Dead cell marker 7-AAD-PerCP (BD Bioscience) added prior to FACS analysis.

[6] = system: PBMC; experiment: Granzyme B (GrB) ELISPOT; type: cell-based, human; details: PBMC from three melanoma patients (MM.03, MM.53, MM.135)
Method: In the present study the ELISPOT was performed according to the guidelines provided by CIP (http://cimt.eu/cimt/files/dl/cip_guidelines.pdf). In some experiments PBMC were stimulated once in vitro with peptide prior to analysis as described to extend the sensitivity of the assay. Briefly, nitrocellulose bottomed 96-well plates (MultiScreen MAIP N45; Millipore) were coated overnight with the relevant antibodies. The wells were washed, blocked by X-vivo medium and the effector cells were added if possible in triplicates otherwise in duplicates at different cell concentrations, with or without peptide. The plates were incubated overnight. The following day, medium was discarded and the wells were washed prior to addition of the relevant biotinylated secondary Ab (Mabtech), followed by the Avidin-enzyme conjugate (AP-Avidin; Calbiochem/Invitrogen Life Technologies) and finally the enzyme substrate NBT/BCIP (Invitrogen Life Technologies). The spots were counted using the ImmunoSpot Series 2.0 Analyzer (CTL Analyzers). Definition of an ELISPOT response was based on the guidelines and recommendations provided by CIP by an empirical or a statistical approach; the former implies setting a threshold to represent a biological response. […] The non-parametric Distribution free resampling (DFR) test gives a way of formally comparing antigen stimulated wells with negative control wells. […]

[7] = system: PBMC; experiment: TNF-α ELISPOT; type: cell-based, human; details: PBMC from IFN-γ-responding patients, triplicates
Method: In addition to determining the presence of specific T-cells using IFNγ as a marker, TNFα was also used as a marker. Thus, an ELISPOT assay was performed essentially as described above with the PDL101 peptide including a stimulation once in vitro with said peptide, except that TNFα antibodies were used in place of IFNγ antibodies. FIG. 2B show the results.
In the present study the ELISPOT was performed according to the guidelines provided by CIP (http://cimt.eu/cimt/files/dl/cip_guidelines.pdf). In some experiments PBMC were stimulated once in vitro with peptide prior to analysis as described to extend the sensitivity of the assay. Briefly, nitrocellulose bottomed 96-well plates (MultiScreen MAIP N45; Millipore) were coated overnight with the relevant antibodies. The wells were washed, blocked by X-vivo medium and the effector cells were added if possible in triplicates otherwise in duplicates at different cell concentrations, with or without peptide. The plates were incubated overnight. The following day, medium was discarded and the wells were washed prior to addition of the relevant biotinylated secondary Ab (Mabtech), followed by the Avidin-enzyme conjugate (AP-Avidin; Calbiochem/Invitrogen Life Technologies) and finally the enzyme substrate NBT/BCIP (Invitrogen Life Technologies). The spots were counted using the ImmunoSpot Series 2.0 Analyzer (CTL Analyzers). […]

[8] = system: PD-L101-specific T-cell bulk culture; experiment: CD107a staining of T-cell bulk culture after peptide addition; type: cell-based, human; details: peptide added directly to T-cell bulk culture, FACS
Text: Subsequently, cells were stained with tetramer and surface markers and analysed FACSCANTO II (BD Biosciences, San Jose Calif., USA).

[9] = system: PBMC; experiment: IFN-γ ELISPOT assay; type: cell-based, human; details: for specific T-cell responses, IFN-γ ELISPOT: PBMC from HLA-A2+ cancer patients (breast cancer, melanoma, renal cell carcinoma) stimulated once with peptide in vitro
Text: The ELISPOT assay was used to quantify peptide specific IFN-γ releasing effector cells as described previously (Andersen et al., 2001, Cancer Res. 61:869-872). In some experiments PBMC were stimulated once in vitro with peptide prior to analysis as described (McCutcheon et al., 1997, J Immunol Methods 210:149-166) to extend the sensitivity of the assay. Briefly, nitrocellulose bottomed 96-well plates (MultiScreen MAIP N45; Millipore) were coated overnight with IFN-γ capture mAb (Mabtech). The wells were washed, blocked by X-vivo medium and the effector cells (PBMC collected and when indicated stimulated as described above) were added in duplicates at different cell concentrations, with or without 10 μM peptide. The plates were incubated overnight. The following day, medium was discarded and the wells were washed prior to addition of the relevant biotinylated secondary Ab (Mabtech). The plates were incubated at room temperature (RT) for 2 hours, washed, and Avidin-enzyme conjugate (AP-Avidin; Calbiochem/Invitrogen Life Technologies) was added to each well. Plates were incubated at RT for 1 hour and the enzyme substrate NBT/BCIP (Invitrogen Life Technologies) was added to each well and incubated at RT for 5-10 min. Upon the emergence of dark purple spots, the reaction was terminated by washing with tap water. The spots were counted using the ImmunoSpot Series 2.0 Analyzer (CTL Analyzers).
In the present study the ELISPOT was performed according to the guidelines provided by CIP (http://cimt.eu/cimt/files/dl/cip_guidelines.pdf). In some experiments PBMC were stimulated once in vitro with peptide prior to analysis as described to extend the sensitivity of the assay. Briefly, nitrocellulose bottomed 96-well plates (MultiScreen MAIP N45; Millipore) were coated overnight with the relevant antibodies. The wells were washed, blocked by X-vivo medium and the effector cells were added if possible in triplicates otherwise in duplicates at different cell concentrations, with or without peptide. The plates were incubated overnight. The following day, medium was discarded and the wells were washed prior to addition of the relevant biotinylated secondary Ab (Mabtech), followed by the Avidin-enzyme conjugate (AP-Avidin; Calbiochem/Invitrogen Life Technologies) and finally the enzyme substrate NBT/BCIP (Invitrogen Life Technologies). The spots were counted using the ImmunoSpot Series 2.0 Analyzer (CTL Analyzers). Definition of an ELISPOT response was based on the guidelines and recommendations provided by CIP by an empirical or a statistical approach; the former implies setting a threshold to represent a biological response. […] The non-parametric Distribution free resampling (DFR) test gives a way of formally comparing antigen stimulated wells with negative control wells. As a minimum the ELISPOT assay must be performed at least in triplets. Furthermore, the non-parametric unpaired Mann-Whitney test was used to compare PD-L101-specific responders between cancer patients and healthy donors.

[10] = system: HLA-A2; experiment: HLA peptide exchange technology and ELISA; type: binding, human; details: compared with high affinity epitopes HIV-1 pol476-484 and CMV pp65 pos495-503
Text: To evaluate the affinity of the HLA-peptide complex a UV exchange method was used in combination with a sandwich ELISA as previously described (19).

Substance: FMTYWHLLNAFTVTVPKDL (PD-L1 peptide) [PDLong1]
- lysis of peptide- or protein-pulsed T2-cells by PD-L101-specific T-cell culture [1]: take up, process and present
- lysis of pulsed KIG-BCL by PD-L101-specific CTL [2]: recognized

Substance: 5′-CCUACUGGCAUUUGCUGAACGCAUU3′ (antisense AAUGCGUUCAGCAAAUGCCAGUAGG; listed as RNA, chemistry not given here) [PD-L1 siRNA]
- PD-L1 protein surface expression on mDC after siRNA transfection [3]: reduced the level of PD-L1 protein expression
- killing of siRNA-transfected mDC by PD-L1-specific CTL cultures [4]: rescued the DC from being killed

Substance: LLNAFTVTV (PD-L1 peptide) [PD-L101]
- PD-L1-reactive T cells by HLA-A2/PD-L101 tetramer, directly ex vivo ([5]; PBMC from two PD-L101-responding patients (CM.21, MM.05)): detectable ex vivo in both patients
- PD-L1-tetramer positive cells ([5]; T-cells from a breast cancer patient): 13.52%
- PD-L1-tetramer positive cells ([5]; T-cells from a malignant melanoma patient): 0.17%
- frequency of PD-L1-specific T-cells by tetramer after one in vitro peptide stimulation ([5]; both patients (CM.21, MM.05)): markedly increased the frequency
- GrB ELISPOT responses (DFR test) [6]: could be detected in the three patients; also recorded: significant responses against PD-L101 in two of the patients
- frequency of PD-L101-specific, GrB releasing cells [6]: 100-300 PD-L101-specific, GrB releasing cells per 5×10^5 PBMC
- TNF-α release by PD-L101-specific cells, TNF-α ELISPOT [7]: released TNF-α
- lysis of peptide- or protein-pulsed T2-cells by PD-L101-specific T-cell culture [1]: killed; also recorded: lysed T2-cells pulsed with PD-L101 efficiently
- lysis of peptide- or protein-pulsed T2-cells by PD-L101-specific T-cell culture ([1]; listed as PDL01): efficiently presented
- HLA-A2/PD-L101-tetramer+, CD107a+ cells [8]: distinct populations
- specific T-cell responses, IFN-γ ELISPOT [9]: Frequent and strong responses were detected
- specific T-cell responses, IFN-γ ELISPOT ([9]; listed as PDL101): responses were detected
- PD-L101-specific cells, IFN-γ ELISPOT directly ex vivo ([9]; PBMC of responding patients, without peptide stimulation in vitro): significant responses; also recorded: readily detectable ex vivo in selected patients
- binding to HLA-A2 [10]: comparable to the high-affinity control epitope
- lysis of pulsed KIG-BCL by PD-L101-specific CTL [2]: recognized

Substance: VILGAILLCLGVALTFIFRLRKG (PD-L1 peptide) [PDLong2]
- lysis of pulsed KIG-BCL by PD-L101-specific CTL [2]: not killed
